Values joined by “and” are separate entries in the source; they are usually repeats but may differ in a detail not shown here. Equal entries are not always repeated.
Assays:
[1] = patients under insulin treatment; cited from earlier work
[2] = cited from earlier work
BALB/c mice = assay: Glycemia after oral insulin solution (not seized in polymer) in BALB/c mice; type: in vivo; details: for Glycemia: oral insulin solution 4 IU/kg, group averages (4 groups of 5 mice)
Protocol: Excipients: Zinc Chloride, glycerol, metacresol, Sodium hydroxide, Chloridic acid, and water suitable for injections. • The irradiation conditions ensuring the best quality of the final product has been described. • Its release or liberation under laboratory conditions and in laboratory animals has been studied. • Bioavailability in laboratory animals, has been studied. • Laboratory experimental pharmacological steps are included. The determination of glycemia in blood is performed employing the following apparatus:
Measuring type device: Accu-Chek Active
The measured values listed in the table are shown averaged in FIG. 1.
GLYCEMIA as a function of time, averaged in four groups of BALB/c mice (five mice in each group), to which oral insulin solution (4 IU/kg) was administered (insulin without been seized into polymer).

[3] = average action profile after subcutaneous injection

Biosynthetic human insulin
Frequency of changes in the levels of glucose in the blood [1]: < 1/1000
Action profile: Duration [2, 3]: 7 to 8 h
Action profile: Initial [2, 3]: within the first half hour
Bond to plasmatic proteins ([2]; except circulating insulin antibodies): No significative bond to plasmatic proteins
Average life (t½) of insulin in the bloodstream ([2]; in bloodstream): only of a few minutes
t½ ([2]; injected (subcutaneous) insulin, clinical studies, determined by absorption): 2 to 5 h
Change of glycemia in mice (BALB/c mice; 30 to 75 minutes after oral administration of insulin solution): slight diminution of glycemia
Glycemia (BALB/c mice; time 0 min): 100 mg/dL and 102 mg/dL and 105 mg/dL
Glycemia (BALB/c mice; time 15 min): 98 mg/dL and 97 mg/dL and 96 mg/dL
Glycemia (BALB/c mice; time 30 min): 101 mg/dL and 102 mg/dL and 103 mg/dL and 105 mg/dL
Glycemia (BALB/c mice; time 60 min): 90 mg/dL and 93 mg/dL and 98 mg/dL and 96 mg/dL
Glycemia (BALB/c mice; time 90 min): 93 mg/dL and 95 mg/dL and 90 mg/dL and 94 mg/dL
Glycemia (BALB/c mice; time 180 min): 104 mg/dL and 102 mg/dL and 105 mg/dL and 100 mg/dL
